# In US20130274338A1, “PHARMACEUTICAL COMPOSITIONS COMPRISING DGLA, 15-OHEPA, AND/OR 15-HETRE AND METHODS OF REDUCING SEBUM PRODUCTION USING SAME” (priority 2012, published 2013):
# System: P. acnes
# Assay: Agar dilution method, growth of P. acnes and MIC, combinations with a fatty acid spike
# Assay type: cell-based, Propionibacterium acnes
# Design: key to Growth Index Plate 1 / Growth Index Plate 2 / Growth Index Plate 3 / Growth Index Avg: +++: confluent growth (comparable to control); ++: less confluent growth; +: marked reduction in growth to multiple tiny, single colonies; −: no growth present
# [1] = compound at 1 mg/mL + 0.01 mg/mL 15-HETrE
# [2] = compound at 1 mg/mL + 0.05 mg/mL 15-HETrE
# [3] = compound at 1 mg/mL + 0.05 mg/mL 15-OHEPA
# [4] = compound at 1 mg/mL + 0.1 mg/mL 15-OHEPA
# [5] = compound at 1 mg/mL + 0.4 mg/mL dGLA
# [6] = compound at 1 mg/mL + 1.0 mg/mL dGLA
# [7] = compound at 5 mg/mL + 0.01 mg/mL 15-HETrE
# [8] = compound at 5 mg/mL + 0.05 mg/mL 15-HETrE
# [9] = compound at 5 mg/mL + 0.05 mg/mL 15-OHEPA
# [10] = compound at 5 mg/mL + 0.1 mg/mL 15-OHEPA
# [11] = compound at 5 mg/mL + 0.4 mg/mL dGLA
# [12] = compound at 5 mg/mL + 1.0 mg/mL dGLA
# [13] = compound at 10 mg/mL + 0.01 mg/mL 15-HETrE
# [14] = compound at 10 mg/mL + 0.05 mg/mL 15-HETrE
# [15] = compound at 10 mg/mL + 0.05 mg/mL 15-OHEPA
# [16] = compound at 10 mg/mL + 0.1 mg/mL 15-OHEPA
# [17] = compound at 10 mg/mL + 0.4 mg/mL dGLA
# [18] = compound at 10 mg/mL + 1.0 mg/mL dGLA
# [19] = compound at 15 mg/mL + 0.01 mg/mL 15-HETrE
# [20] = compound at 15 mg/mL + 0.05 mg/mL 15-HETrE
# [21] = compound at 15 mg/mL + 0.05 mg/mL 15-OHEPA
# [22] = compound at 15 mg/mL + 0.1 mg/mL 15-OHEPA
# [23] = compound at 15 mg/mL + 0.4 mg/mL dGLA
# [24] = compound at 15 mg/mL + 1.0 mg/mL dGLA
# [25] = compound at 25 mg/mL + 0.01 mg/mL 15-HETrE
# [26] = compound at 25 mg/mL + 0.05 mg/mL 15-HETrE
# [27] = compound at 25 mg/mL + 0.05 mg/mL 15-OHEPA
# [28] = compound at 25 mg/mL + 0.1 mg/mL 15-OHEPA
# [29] = compound at 25 mg/mL + 0.4 mg/mL dGLA
# [30] = compound at 25 mg/mL + 1.0 mg/mL dGLA
structure (smiles),measurement,setting,value
NC(=O)c1cccnc1 [Nicotinamide],Growth Index Avg,[1],+++
same,Growth Index Plate 1,[1],+++
same,Growth Index Plate 2,[1],+++
same,Growth Index Plate 3,[1],+++
same,Growth Index Avg,[2],−
same,Growth Index Plate 1,[2],−
same,Growth Index Plate 2,[2],−
same,Growth Index Plate 3,[2],−
same,Growth Index Avg,[3],+++
same,Growth Index Plate 1,[3],+++
same,Growth Index Plate 2,[3],+++
same,Growth Index Plate 3,[3],+++
same,Growth Index Avg,[4],−
same,Growth Index Plate 1,[4],−
same,Growth Index Plate 2,[4],−
same,Growth Index Plate 3,[4],−
same,Growth Index Avg,[5],+++
same,Growth Index Plate 1,[5],+++
same,Growth Index Plate 2,[5],+++
same,Growth Index Plate 3,[5],+++
same,Growth Index Avg,[6],+++
same,Growth Index Plate 1,[6],+++
same,Growth Index Plate 2,[6],+++
same,Growth Index Plate 3,[6],+++
same,Growth Index Avg,[7],+++
same,Growth Index Plate 1,[7],+++
same,Growth Index Plate 2,[7],+++
same,Growth Index Plate 3,[7],+++
same,Growth Index Avg,[8],−
same,Growth Index Plate 1,[8],−
same,Growth Index Plate 2,[8],−
same,Growth Index Plate 3,[8],−
same,Growth Index Avg,[9],+++
same,Growth Index Plate 1,[9],+++
same,Growth Index Plate 2,[9],+++
same,Growth Index Plate 3,[9],+++
same,Growth Index Avg,[10],−
same,Growth Index Plate 1,[10],−
same,Growth Index Plate 2,[10],−
same,Growth Index Plate 3,[10],−
same,Growth Index Avg,[11],+++
same,Growth Index Plate 1,[11],+++
same,Growth Index Plate 2,[11],+++
same,Growth Index Plate 3,[11],+++
same,Growth Index Avg,[12],+++
same,Growth Index Plate 1,[12],+++
same,Growth Index Plate 2,[12],+++
same,Growth Index Plate 3,[12],+++
same,Growth Index Avg,[13],++
same,Growth Index Plate 1,[13],++
same,Growth Index Plate 2,[13],++
same,Growth Index Plate 3,[13],++
same,Growth Index Avg,[14],−
same,Growth Index Plate 1,[14],−
same,Growth Index Plate 2,[14],−
same,Growth Index Plate 3,[14],−
same,Growth Index Avg,[15],+++
same,Growth Index Plate 1,[15],+++
same,Growth Index Plate 2,[15],+++
same,Growth Index Plate 3,[15],+++
same,Growth Index Avg,[16],−
same,Growth Index Plate 1,[16],−
same,Growth Index Plate 2,[16],−
same,Growth Index Plate 3,[16],−
same,Growth Index Avg,[17],+++
same,Growth Index Plate 1,[17],+++
same,Growth Index Plate 2,[17],+++
same,Growth Index Plate 3,[17],+++
same,Growth Index Avg,[18],++
same,Growth Index Plate 1,[18],+
same,Growth Index Plate 2,[18],++
same,Growth Index Plate 3,[18],++
same,Growth Index Avg,[19],−
same,Growth Index Plate 1,[19],−
same,Growth Index Plate 2,[19],−
same,Growth Index Plate 3,[19],−
same,Growth Index Avg,[20],−
same,Growth Index Plate 1,[20],−
same,Growth Index Plate 2,[20],−
same,Growth Index Plate 3,[20],−
same,Growth Index Avg,[21],−
same,Growth Index Plate 1,[21],−
same,Growth Index Plate 2,[21],−
same,Growth Index Plate 3,[21],−
same,Growth Index Avg,[22],−
same,Growth Index Plate 1,[22],−
same,Growth Index Plate 2,[22],−
same,Growth Index Plate 3,[22],−
same,Growth Index Avg,[23],+
same,Growth Index Plate 1,[23],+
same,Growth Index Plate 2,[23],+
same,Growth Index Plate 3,[23],+
same,Growth Index Avg,[24],−
same,Growth Index Plate 1,[24],−
same,Growth Index Plate 2,[24],−
same,Growth Index Plate 3,[24],−
same,Growth Index Avg,[25],−
same,Growth Index Plate 1,[25],−
same,Growth Index Plate 2,[25],−
same,Growth Index Plate 3,[25],−
same,Growth Index Avg,[26],−
same,Growth Index Plate 1,[26],−
same,Growth Index Plate 2,[26],−
same,Growth Index Plate 3,[26],−
same,Growth Index Avg,[27],−
same,Growth Index Plate 1,[27],−
same,Growth Index Plate 2,[27],−
same,Growth Index Plate 3,[27],−
same,Growth Index Avg,[28],−
same,Growth Index Plate 1,[28],−
same,Growth Index Plate 2,[28],−
same,Growth Index Plate 3,[28],−
same,Growth Index Avg,[29],−
same,Growth Index Plate 1,[29],−
same,Growth Index Plate 2,[29],−
same,Growth Index Plate 3,[29],−
same,Growth Index Avg,[30],−
same,Growth Index Plate 1,[30],−
same,Growth Index Plate 2,[30],−
same,Growth Index Plate 3,[30],−
same,"growth of P. Acnes in combination with 15-HETrE, compared with 15-HETrE used alone",in combination with 15-HETrE,did not reduce the growth
same,"growth of P. Acnes in combination with 15-OHEPA, compared with 15 OHEPA used alone",in combination with 15-OHEPA,did not reduce the growth
same,"growth of P. Acnes in combination with DGLA, compared with DGLA used alone",in combination with DGLA,did not reduce the growth
